Experimental data: ChEMBL document CHEMBL3045943, “Novel N-aryl(alkaryl)-2-[(3-R-2-oxo-2H-[1,2,4]triazino[2,3-c]quinazoline-6-yl)thio]acetamides: synthesis, cytotoxicity, anticancer activity, COMPARE analysis and docking” (2013)

Experiments:
Type in all cases: functional
Malme-3M = test: Cytotoxicity against Homo sapiens (human) MALME-3M cells assessed as cell growth at 10 uM after 48 hr by SRB assay relative to control; details: read-out: Activity
[1] = system: Photobacterium leiognathi; test: Growth inhibition of Photobacterium leiognathi Sh1 assessed as bio-luminescence at 0.25 mg/ml after 10 min by acute action test relative to control; set-up: scale not given: the % may be the effect or the level left
[2] = system: Photobacterium leiognathi; test: Growth inhibition of Photobacterium leiognathi Sh1 assessed as bio-luminescence at 0.1 mg/ml after 16 to 18 hr by chronic action test relative to control; set-up: scale not given: the % may be the effect or the level left
SNB-75 [3] = test: Cytotoxicity against Homo sapiens (human) SNB75 cells assessed as cell growth at 10 uM after 48 hr by SRB assay relative to control; details: SNB-75, 48 h, read-out: Activity
OVCAR-4 = test: Cytotoxicity against Homo sapiens (human) OVCAR4 cells assessed as cell growth at 10 uM after 48 hr by SRB assay relative to control; details: OVCAR-4, 48 h, read-out: Activity
SF-539 = test: Cytotoxicity against Homo sapiens (human) SF539 cells assessed as cell growth at 10 uM after 48 hr by SRB assay relative to control; details: SF-539, 48 h, read-out: Activity
MCF7 = test: Cytotoxicity against Homo sapiens (human) MCF7 cells assessed as cell growth at 10 uM after 48 hr by SRB assay relative to control; details: MCF7, 48 h, read-out: Activity
UO-31 = test: Cytotoxicity against Homo sapiens (human) UO31 cells assessed as cell growth at 10 uM after 48 hr by SRB assay relative to control; details: UO-31, 48 h, read-out: Activity
LOX IMVI = test: Cytotoxicity against Homo sapiens (human) LOXIMVI cells assessed as cell growth at 10 uM after 48 hr by SRB assay relative to control; details: read-out: Activity
MDA-MB-231 [4] = test: Cytotoxicity against Homo sapiens (human) MDA-MB-231 cells assessed as cell growth at 10 uM after 48 hr by SRB assay relative to control; details: MDA-MB-231, 48 h, read-out: Activity
HT-29 = test: Cytotoxicity against Homo sapiens (human) HT-29 cells assessed as cell growth at 10 uM after 48 hr by SRB assay relative to control; details: HT-29, 48 h, read-out: Activity
BT-549 = test: Cytotoxicity against Homo sapiens (human) BT549 cells assessed as cell growth at 10 uM after 48 hr by SRB assay relative to control; details: BT-549, 48 h, read-out: Activity
[5] = system: Photobacterium leiognathi; test: Growth inhibition of Photobacterium leiognathi Sh1 assessed as bio-luminescence at 0.025 mg/ml after 10 min by acute action test relative to control; set-up: scale not given: the % may be the effect or the level left
SN12C = test: Cytotoxicity against Homo sapiens (human) SN12C cells assessed as cell growth at 10 uM after 48 hr by SRB assay relative to control; details: read-out: Activity
SK-MEL-5 = test: Cytotoxicity against Homo sapiens (human) SK-MEL-5 cells assessed as cell growth at 10 uM after 48 hr by SRB assay relative to control; details: SK-MEL-5, 48 h, read-out: Activity
UACC-257 = test: Cytotoxicity against Homo sapiens (human) UACC257 cells assessed as cell growth at 10 uM after 48 hr by SRB assay relative to control; details: UACC-257, 48 h, read-out: Activity
Hs-578T = test: Cytotoxicity against Homo sapiens (human) Hs 578T cells assessed as cell growth at 10 uM after 48 hr by SRB assay relative to control; details: read-out: Activity
HOP-92 = test: Cytotoxicity against Homo sapiens (human) HOP92 cells assessed as cell growth at 10 uM after 48 hr by SRB assay relative to control; details: HOP-92, 48 h, read-out: Activity
NCI-H460 = test: Cytotoxicity against Homo sapiens (human) NCI-H460 cells assessed as cell growth at 10 uM after 48 hr by SRB assay relative to control; details: NCI-H460, 48 h, read-out: Activity
PC-3 = test: Cytotoxicity against Homo sapiens (human) PC3 cells assessed as cell growth at 10 uM after 48 hr by SRB assay relative to control; details: PC-3, 48 h, read-out: Activity
SR = test: Cytotoxicity against Homo sapiens (human) SR cells assessed as cell growth at 10 uM after 48 hr by SRB assay relative to control; details: read-out: Activity
A498 [6] = test: Cytotoxicity against Homo sapiens (human) A498 cells assessed as cell growth at 10 uM after 48 hr by SRB assay relative to control; details: A498, 48 h, read-out: Activity
786-0 = test: Cytotoxicity against Homo sapiens (human) 786-0 cells assessed as cell growth at 10 uM after 48 hr by SRB assay relative to control; details: 786-0, 48 h, read-out: Activity
OVCAR-8 = test: Cytotoxicity against Homo sapiens (human) OVCAR8 cells assessed as cell growth at 10 uM after 48 hr by SRB assay relative to control; details: OVCAR-8, 48 h, read-out: Activity
[7] = Cytotoxicity against Homo sapiens (human) NCI-ADR-RES cells assessed as cell growth at 10 uM after 48 hr by SRB assay relative to control; details: read-out: Activity
U-251 [8] = test: Cytotoxicity against Homo sapiens (human) U251 cells assessed as cell growth at 10 uM after 48 hr by SRB assay relative to control; details: U-251, 48 h, read-out: Activity
HCT-116 = test: Cytotoxicity against Homo sapiens (human) HCT116 cells assessed as cell growth at 10 uM after 48 hr by SRB assay relative to control; details: HCT-116, 48 h, read-out: Activity
ACHN = test: Cytotoxicity against Homo sapiens (human) ACHN cells assessed as cell growth at 10 uM after 48 hr by SRB assay relative to control; details: read-out: Activity
[9] = system: Photobacterium leiognathi; test: Growth inhibition of Photobacterium leiognathi Sh1 assessed as bio-luminescence at 0.1 mg/ml after 10 min by acute action test relative to control; set-up: scale not given: the % may be the effect or the level left
MDA-MB-435 = test: Cytotoxicity against Homo sapiens (human) MDA-MB-435 cells assessed as cell growth at 10 uM after 48 hr by SRB assay relative to control; details: MDA-MB-435, 48 h, read-out: Activity
RXF 393 = test: Cytotoxicity against Homo sapiens (human) RXF393 cells assessed as cell growth at 10 uM after 48 hr by SRB assay relative to control; details: RXF 393, 48 h, read-out: Activity
[10] = system: Photobacterium leiognathi; test: Growth inhibition of Photobacterium leiognathi Sh1 assessed as bio-luminescence at 0.25 mg/ml after 16 to 18 hr by chronic action test relative to control; set-up: scale not given: the % may be the effect or the level left
[11] = system: Photobacterium leiognathi; test: Growth inhibition of Photobacterium leiognathi Sh1 assessed as bio-luminescence at 0.025 mg/ml after 16 to 18 hr by chronic action test relative to control; set-up: scale not given: the % may be the effect or the level left
SW-620 = test: Cytotoxicity against Homo sapiens (human) SW620 cells assessed as cell growth at 10 uM after 48 hr by SRB assay relative to control; details: SW-620, 48 h, read-out: Activity
UACC-62 = test: Cytotoxicity against Homo sapiens (human) UACC62 cells assessed as cell growth at 10 uM after 48 hr by SRB assay relative to control; details: UACC-62, 48 h, read-out: Activity
TK-10 = test: Cytotoxicity against Homo sapiens (human) TK10 cells assessed as cell growth at 10 uM after 48 hr by SRB assay relative to control; details: TK-10, 48 h, read-out: Activity
HOP-62 = test: Cytotoxicity against Homo sapiens (human) HOP62 cells after 48 hr by SRB assay; details: HOP-62, 48 h
A549 = test: Cytotoxicity against Homo sapiens (human) A549 cells assessed as cell growth at 10 uM after 48 hr by SRB assay relative to control; details: A549, 48 h, read-out: Activity
U-251 [12] = test: Cytotoxicity against Homo sapiens (human) U251 cells after 48 hr by SRB assay; details: U-251, 48 h
MDA-MB-231 [13] = test: Cytotoxicity against Homo sapiens (human) MDA-MB-231 cells after 48 hr by SRB assay; details: MDA-MB-231, 48 h
SK-MEL-2 = test: Cytotoxicity against Homo sapiens (human) SK-MEL-2 cells assessed as cell growth at 10 uM after 48 hr by SRB assay relative to control; details: SK-MEL-2, 48 h, read-out: Activity
SNB-75 [14] = test: Cytotoxicity against Homo sapiens (human) SNB75 cells after 48 hr by SRB assay; details: SNB-75, 48 h
OVCAR-3 = test: Cytotoxicity against Homo sapiens (human) OVCAR3 cells assessed as cell growth at 10 uM after 48 hr by SRB assay relative to control; details: OVCAR-3, 48 h, read-out: Activity
NCI-H522 = test: Cytotoxicity against Homo sapiens (human) NCI-H522 cells assessed as cell growth at 10 uM after 48 hr by SRB assay relative to control; details: NCI-H522, 48 h, read-out: Activity
DU-145 = test: Cytotoxicity against Homo sapiens (human) DU145 cells assessed as cell growth at 10 uM after 48 hr by SRB assay relative to control; details: DU-145, 48 h, read-out: Activity
A498 [15] = test: Cytotoxicity against Homo sapiens (human) A498 cells after 48 hr by SRB assay; details: A498, 48 h
SNB-19 = test: Cytotoxicity against Homo sapiens (human) SNB19 cells assessed as cell growth at 10 uM after 48 hr by SRB assay relative to control; details: SNB-19, 48 h, read-out: Activity

Compound: Cc1ccc(CNC(=O)CSc2nc3ccccc3c3nc(=O)c(-c4ccccc4)nn23)cc1
- growth at 10 µM (Malme-3M): 77.2%
- Activity [1]: 145.5%
- Activity [2]: 112%
- growth at 10 µM (SNB-75 [3]): 62.5%
- growth at 10 µM (OVCAR-4): 74.9%
- growth at 10 µM (SF-539): 48%
- growth at 10 µM (MCF7): 79.1%
- growth at 10 µM (UO-31): 61.9%
- growth at 10 µM (LOX IMVI): 78.6%
- growth at 10 µM (MDA-MB-231 [4]): 70.5%
- growth at 10 µM (HT-29): 78.8%
- growth at 10 µM (BT-549): 26.9%
- Activity [5]: 84.6%
- growth at 10 µM (SN12C): 78.6%
- growth at 10 µM (SK-MEL-5): 81.8%
- growth at 10 µM (UACC-257): 71.1%
- growth at 10 µM (Hs-578T): 62.3%
- growth at 10 µM (HOP-92): 85.6%
- growth at 10 µM (NCI-H460): 72.1%
- growth at 10 µM (PC-3): 83%
- growth at 10 µM (SR): 71.4%
- growth at 10 µM (A498 [6]): 75.5%
- growth at 10 µM (786-0): 80.2%
- growth at 10 µM (OVCAR-8): 60.9%
- growth at 10 µM [7]: 61.4%
- growth at 10 µM (U-251 [8]): 63%
- growth at 10 µM (HCT-116): 32.5%
- growth at 10 µM (ACHN): 85.8%
- Activity [9]: 106%
- growth at 10 µM (MDA-MB-435): 67.7%
- growth at 10 µM (RXF 393): 77.2%
- Activity [10]: 140%
- Activity [11]: 80%

Compound: O=C(CSc1nc2ccccc2c2nc(=O)c(-c3ccccc3)nn12)NCc1ccccc1F
- growth at 10 µM (SW-620): 31%
- growth at 10 µM (UACC-62): 41.2%
- growth at 10 µM (TK-10): 46.3%
- GI50 (HOP-62): 2.82 µM
- LC50 (HOP-62): > 100 µM
- TGI (HOP-62; read-out: pTGI (converted)): > 100 µM
- growth at 10 µM (A549): 26%
- Activity [1]: 100%
- Activity [2]: 75%
- growth at 10 µM (SNB-75 [3]): 15.8%
- growth at 10 µM (OVCAR-4): -39.5%
- growth at 10 µM (SF-539): 20.9%
- growth at 10 µM (MCF7): 38.2%
- growth at 10 µM (LOX IMVI): 50.5%
- GI50 (U-251 [12]): 2.69 µM
- LC50 (U-251 [12]): > 100 µM
- TGI (U-251 [12]; read-out: pTGI (converted)): > 100 µM
- GI50 (MDA-MB-231 [13]): 2.69 µM
- CC50 (MDA-MB-231 [13]; read-out: pLC50 (the source's name) (converted)): > 100 µM
- TGI (MDA-MB-231 [13]; read-out: pTGI): > 100 µM
- growth at 10 µM (MDA-MB-231 [4]): 48.9%
- growth at 10 µM (SK-MEL-2): 50.3%
- GI50 (SNB-75 [14]): 1.82 µM
- LC50 (SNB-75 [14]): > 100 µM
- TGI (SNB-75 [14]; read-out: pTGI (converted)): > 100 µM
- Activity [5]: 118.8%
- growth at 10 µM (SK-MEL-5): 47.3%
- growth at 10 µM (OVCAR-3): 9.5%
- growth at 10 µM (NCI-H460): 5.5%
- growth at 10 µM (786-0): 16.5%
- growth at 10 µM (OVCAR-8): 36.2%
- growth at 10 µM [7]: 38.8%
- growth at 10 µM (U-251 [8]): 2.29%
- growth at 10 µM (HCT-116): 34.5%
- growth at 10 µM (NCI-H522): 34.5%
- Activity [9]: 125%
- growth at 10 µM (DU-145): 35.9%
- GI50 (A498 [15]): 1.29 µM
- LC50 (A498 [15]): > 100 µM
- TGI (A498 [15]; read-out: pTGI (converted)): > 100 µM
- growth at 10 µM (MDA-MB-435): 49.6%
- growth at 10 µM (RXF 393): 42.3%
- Activity [10]: 54.5%
- Activity [11]: 90.6%

Compound: COc1ccc(-c2nn3c(SCC(=O)Nc4ccc(C)cc4)nc4ccccc4c3nc2=O)cc1
- Activity [1]: 146.7%
- Activity [2]: 76.8%
- growth at 10 µM (SNB-75 [3]): 55.9%
- Activity [5]: 112.5%
- growth at 10 µM (SNB-19): 59%
- growth at 10 µM (U-251 [8]): 24.4%
- Activity [9]: 120%
- Activity [10]: 27.3%
- Activity [11]: 69.8%
